Source: US20210253598A1, “ARYL ANNULATED MACROCYCLIC INDOLE DERIVATIVES” (priority 2017, published 2021)
Where “and” joins values, the source holds several entries; their conditions need not be identical. Equal values may be shown once. Read-outs that look alike come from different tables or passages of the source.

Legend:
[1] = test system: A2780; test: Anti-proliferative effect in A2780 cells, CellTiter-Glo (Assay 7); assay type: cell-based; conditions: A2780, 72 hours incubation, CellTiter-Glo, several values per example, read-out: Antiproli A2780
Procedure: (§1) Assessment of the Anti-Proliferative Effect of Compounds in Different Cell Lines
(§2) The impact of compounds on the proliferation of different cell lines was assessed using the CellTiter-Glo® Luminescent Cell Viability reagent from Promega (G7573).
(§3) In parallel, cells were plated in a reference (day 0) plate for time zero determination. Cells were incubated in a humidified incubator at 37° C. overnight.
(§4) Rim wells were excluded. The cells were incubated for 72 hours in a humidified incubator at 37° C. The day 0 plate was measured by adding 30 μL/well of CTG solution (CellTiter-Glo® Luminescent Cell Viability reagent, Promega G7573) to time zero wells in the reference plate followed by a 10 minutes incubation and luminescence reading at 0.1 ms. using the PHERAstar FS microplate reader (BMG Labtech).
(§5) After 72 hours incubation, the treated plates were measured in the same way as the day 0 plate mentioned above. The Bella DRC Master Sheet was used to calculate IC50s, with CI=day 0 values and C0=DMSO control values.

[2] = test system: MV-4-11; test: Anti-proliferative effect in MV-4-11 cells, CellTiter-Glo (Assay 7); assay type: cell-based; conditions: MV-4-11, 72 hours incubation, CellTiter-Glo, several values per example, read-out: Antiproli MV-4-11
Procedure: as §1, §2, §3, §4, §5

[3] = test system: SUDHL5; test: Induction of cytotoxicity in SUDHL5 cells, CellTiter-Glo (Assay 6); assay type: cell-based; conditions: Homo sapiens, SU-DHL-5, 5 h, SUDHL5, 5 hours incubation, median, read-out: Cytotox SUDHL5 [M] (median)
Procedure: (§6) Induction of Cytotoxicity Upon Treatment of Cells with Selected Compounds
(§7) In principle, compounds that induce apoptosis will concomitantly induce cell cytotoxicity. Therefore, cytotoxicity assays were run in parallel in SUDHL5 and SUDHL10 cells.
(§8) As a control, medium without cells was also added to the plate. Cells were incubated in a humidified incubator at 37° C. overnight. […] Rim wells were excluded. The cells were incubated for 5 hours in a humidified incubator at 37° C. After this incubation, 30 μl of CellTiter-Glo® Luminescent Cell Viability reagent (Promega, G7573) was added to each well using the Multidrop Combi Reagent Dispenser, followed by 15 minutes incubation on a shaker at room temperature. Finally, luminescence was read at 0.1 ms, with a gain of 3000 using the PHERAstar FS microplate reader (BMG Labtech).

[4] = test system: SUDHL10; test: Induction of cytotoxicity in SUDHL10 cells, CellTiter-Glo (Assay 6); assay type: cell-based; conditions: SUDHL10, 5 hours incubation, median, read-out: Cytotox SUDHL10 [M] (median)
Procedure: as §6, §7, §8

[5] = test system: SUDHL10; test: Induction of caspase-3/7 activity in SUDHL10 cells (Assay 4); assay type: cell-based; conditions: SUDHL10, 3 hours treatment, Caspase-Glo 3/7, median, read-out: Caspase SUDHL10 [M] (median)
Procedure: (§9) Induction of Caspase-3/7 Activity Upon Treatment of Cells with Selected Compounds
(§10) The BH3-domain of MCL-1 sequesters pro-apoptotic proteins, thereby inhibiting apoptosis. In contrast, MCL-1 inhibitors are expected to antagonize this effect leading to an increase in apoptosis, which can be determined by measuring the activity of caspase-3/7.
(§11) The activity of caspase-3/7 was determined in DLBCL (Diffuse large B-cell lymphoma) cell lines (SUDHL5 and SUDHL10) upon treatment with different compounds, using the Caspase-Glo® 3/7 reagent from Promega (G8092).
(§12) As a control, medium without cells was also added to the plate. Cells were incubated in a humidified incubator at 37° C. overnight.
(§13) Rim wells were excluded. The cells were incubated for 3 hours in a humidified incubator at 37° C. After this incubation, 30 μl of Caspase-Glo® 3/7 reagent (Promega G8092) was added to each well using the Multidrop Combi Reagent Dispenser, followed by 1 hour incubation at 37° C. Finally, luminescence was read at 0.1 ms, with a gain of 3000 using the PHERAstar FS microplate reader (BMG Labtech).
(§14) For the evaluation of the results, the background measured with “medium-only” was subtracted from all other values. Then, the values were normalized to DMSO-only treated cells (every value was divided by the mean of the DMSO control).

[6] = test system: SUDHL5; test: Anti-proliferative effect in SUDHL5 cells, CellTiter-Glo (Assay 7); assay type: cell-based; conditions: SUDHL5, 72 hours incubation, CellTiter-Glo, median, read-out: Antiproli SUDHL5 [M] (median)
Procedure: as §1, §2, §3, §4, §5

[7] = test system: SUDHL5; test: Induction of caspase-3/7 activity in SUDHL5 cells (Assay 4); assay type: cell-based; conditions: SUDHL5, 3 hours treatment, Caspase-Glo 3/7, median, read-out: Caspase SUDHL5 [M] (median)
Procedure: as §9, §10, §11, §12, §13, §14

[8] = target: MCL-1 (Homo sapiens, UniProt Q07820, K194A/K197A/R201A); test: Protein-protein interaction assay MCL-1/Noxa BH3 peptide, TR-FRET (MCL-1 assay, Assay 1); assay type: binding; conditions: MBP-MCL-1 / Noxa BH3 peptide
MCL-1, sequence (Q07820 173-321 K194A/K197A/R201A, looked up): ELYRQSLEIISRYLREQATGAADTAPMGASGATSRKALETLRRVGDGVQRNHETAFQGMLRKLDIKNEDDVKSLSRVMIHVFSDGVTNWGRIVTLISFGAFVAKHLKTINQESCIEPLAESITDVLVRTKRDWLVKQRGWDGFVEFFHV
Procedure: The dose-dependent inhibition by the compounds described in this invention of the interaction between MCL-1 and the BH3 domain of Noxa (both human) was determined using a steady state binding competition assay with time-resolved fluorescence energy transfer (TR-FRET) readout. For that purpose MCL-1 (amino acids 173-321, N-terminal fused to Maltose Binding Protein (MBP), SEQ ID 1) and a synthetic Noxa BH3-derived peptide of sequence Biotin-PEG2-PEG2-PAELEVE-Nva-[…]-amide (SEQ ID 2) served as protein receptor and tracer ligand respectively. The MBP-MCL-1 was purchased from Beryllium (Bedford, Mass., USA). The expression and purification of this protein construct has been described elsewhere (DOI:10.1371/journal.pone.0125010). The Noxa BH3-derived peptide can be obtained from e.g. Biosyntan (Berlin, Germany).
For that, 100-fold concentrated DMSO solutions were prepared by serial dilutions (1:3.4) of a 2 mM stock solution in a clear, 384-well microtiter plate (Greiner Bio-One, Frickenhausen, Germany). From there, 50 nl were transferred in a dark test plate (Greiner Bio-One, Frickenhausen, Germany). The assay was initiated by addition of 2 μl of a 2,5-fold concentrated MBP-MCL-1 solution (usually for a 1 nM end concentration in 5 μl reaction volume) in aqueous assay buffer [50 mM Tris/HCl pH 7, 100 mM sodium chloride (NaCl), 50 mM potassium fluoride (KF), 0.005% Tween-20, 2 mM DTT, 0.1% bovine gamma globulin (BGG)] to the compounds in the assay plate. This was followed by a 10-minute incubation step at 22° C. for pre-equilibration of the putative complex between MBP-MCL-1 and the compounds.
The mixture was incubated in the dark for one hour at 22° C. and then overnight at 4° C. The formation of MCL-1/Noxa complexes was determined by measuring the resonance energy transfer of the anti-MBP-Eu-cryptate antibody to the streptavidin-XL665 present in the reaction.
The resulting data (ratio) were normalized, taking 0% inhibition as the mean value of control measurements (usually 32 data points) where all reagents were included. In this case 50 nl DMSO were used instead of compounds. […] IC50 values were determined by regression analysis based on a 4 parameter equation (minimum, maximum, IC50, Hill; Y=Max+(Min−Max)/(1+(X/IC50)^Hill) using the Screener Software (Genedata).

SMILES: Cc1c2c(nn1C)CNCc1ccccc1Cn1c(C(=O)O)c(CCCOc3cccc4ccccc34)c3cccc-2c31 (racemic) [Example 11, (rac)-4,5-Dimethyl-17-[3-(naphthalen-1-yloxy)propyl]-7,8,9,14-tetrahydro-5H-indolo[1,7-bc]pyrazolo[4,3-e][2,8]benzodiazacycloundecine-16-carboxylic Acid]
- IC50 [1]: 12.2 µM
- IC50 ([1]; Homo sapiens, A2780, 72 h): 11.8 µM
- IC50 ([2]; Homo sapiens, MV4-11, 72 h): 7.59 µM
- IC50 [2]: 7.42 µM
- IC50 [3]: 5.6e-06 M
- IC50 ([4]; Homo sapiens, SU-DHL10, 5 h): 1.5e-05 M
- EC50 ([5]; Homo sapiens, SU-DHL10, 3 h): 1.6e-05 M
- IC50 ([6]; Homo sapiens, SU-DHL-5, 72 h): 7.2e-06 M
- EC50 ([7]; Homo sapiens, SU-DHL-5, 3 h): 5.6e-06 M

SMILES: Cc1c2c(nn1C)CN(C)Cc1ccccc1Cn1c(C(=O)O)c(CCCOc3cccc4ccccc34)c3cccc-2c31 (racemic) [Example 14, (rac)-4,5,8-Trimethyl-17-[3-(naphthalen-1-yloxy)propyl]-7,8,9,14-tetrahydro-5H-indolo[1,7-bc]pyrazolo[4,3-e][2,8]benzodiazacycloundecine-16-carboxylic Acid]
- IC50 ([1]; Homo sapiens, A2780, 72 h): 17.5 µM
- IC50 ([2]; Homo sapiens, MV4-11, 72 h): 6.41 µM
- IC50 [3]: 3e-06 M
- IC50 ([4]; Homo sapiens, SU-DHL10, 5 h): 7e-06 M
- EC50 ([5]; Homo sapiens, SU-DHL10, 3 h): 7.6e-06 M
- IC50 ([8]; MCL-1 Assay [M] (median)): 5.2e-09 M
- IC50 ([6]; Homo sapiens, SU-DHL-5, 72 h): 3.4e-06 M
- EC50 ([7]; Homo sapiens, SU-DHL-5, 3 h): 2.7e-06 M

SMILES: COc1cc(CNC(=O)N2Cc3ccccc3Cn3c(C(=O)O)c(CCCOc4cccc5ccccc45)c4cccc(c43)-c3c(nn(C)c3C)C2)cc(OC)c1OC (racemic) [Example 20, (rac)-4,5-Dimethyl-17-[3-(naphthalen-1-yloxy)propyl]-8-[(3,4,5-trimethoxybenzyl)carbamoyl]-7,8,9,14-tetrahydro-5H-indolo[1,7-bc]pyrazolo[4,3-e][2,8]benzodiazacycloundecine-16-carboxylic Acid]
- IC50 ([1]; Homo sapiens, A2780, 72 h): 13.7 µM
- IC50 ([2]; Homo sapiens, MV4-11, 72 h): 10.8 µM
- IC50 [3]: > 3.3e-05 M
- IC50 ([4]; Homo sapiens, SU-DHL10, 5 h): > 3.3e-05 M
- EC50 ([5]; Homo sapiens, SU-DHL10, 3 h): > 3.3e-05 M
- IC50 ([8]; MCL-1 Assay [M] (median)): 1.8e-07 M
- IC50 ([6]; Homo sapiens, SU-DHL-5, 72 h): 1.2e-05 M
- EC50 ([7]; Homo sapiens, SU-DHL-5, 3 h): > 3.3e-05 M

SMILES: Cc1c2c(nn1C)CN(C(=O)CC1CCOCC1)Cc1ccccc1Cn1c(C(=O)O)c(CCCOc3cccc4ccccc34)c3cccc-2c31 (racemic) [Example 21, (rac)-4,5-Dimethyl-17-[3-(naphthalen-1-yloxy)propyl]-8-(tetrahydro-2H-pyran-4-ylacetyl)-7,8,9,14-tetrahydro-5H-indolo[1,7-bc]pyrazolo[4,3-e][2,8]benzodiazacycloundecine-16-carboxylic Acid]
- IC50 ([1]; Homo sapiens, A2780, 72 h): 11.9 µM
- IC50 ([2]; Homo sapiens, MV4-11, 72 h): 8.33 µM
- IC50 [3]: 1.3e-05 M
- IC50 ([4]; Homo sapiens, SU-DHL10, 5 h): > 3.3e-05 M
- EC50 ([5]; Homo sapiens, SU-DHL10, 3 h): > 3.3e-05 M
- IC50 ([8]; MCL-1 Assay [M] (median)): 3.5e-08 M
- IC50 ([6]; Homo sapiens, SU-DHL-5, 72 h): 1.1e-05 M
- EC50 ([7]; Homo sapiens, SU-DHL-5, 3 h): 2e-05 M

SMILES: Cc1c2c(nn1C)COCc1ccccc1Cn1c(C(=O)O)c(CCCOc3cccc4ccccc34)c3ccc(F)c-2c31 (racemic) [Example 67, (rac)-15-Fluoro-13,14-dimethyl-1-(3-(naphthalen-1-yloxy)propyl)-4,9,11,13-tetrahydrobenzo[3,4]pyrazolo[4′,3′:9,10][1,6]oxaazacycloundecino[8,7,6-hi]indole-2-carboxylic Acid]
- IC50 ([1]; Homo sapiens, A2780, 72 h): 20.5 µM
- IC50 ([2]; Homo sapiens, MV4-11, 72 h): 3.08 µM
- IC50 [3]: 1.8e-06 M
- IC50 ([4]; Homo sapiens, SU-DHL10, 5 h): 4.9e-06 M
- EC50 ([5]; Homo sapiens, SU-DHL10, 3 h): 5.9e-06 M
- IC50 ([6]; Homo sapiens, SU-DHL-5, 72 h): 2.4e-06 M
- EC50 ([7]; Homo sapiens, SU-DHL-5, 3 h): 2.2e-06 M

SMILES: CCc1c2c(nn1C)COCc1ccccc1Cn1c(C(=O)O)c(CCCOc3cccc4ccccc34)c3ccc(F)c-2c31 (racemic) [Example 70, (rac)-14-Ethyl-15-fluoro-13-methyl-1-(3-(naphthalen-1-yloxy)propyl)-4,9,11,13-tetrahydrobenzo[3,4]pyrazolo[4′,3′:9,10][1]oxa[6]azacycloundecino[8,7,6-hi]indole-2-carboxylic Acid]
- IC50 [1]: 22.8 µM and 22.5 µM
- IC50 [2]: 2.41 µM and 2.27 µM
- IC50 [4]: 6.1e-06 M
- EC50 [5]: 8.6e-06 M
- IC50 ([8]; median, read-out: MCL-1 Assay [M] (median)): 2.1e-09 M
- IC50 [6]: 2.2e-06 M
- EC50 [7]: 1.6e-06 M

SMILES: Cc1c2c(nn1C)COCc1ncccc1Cn1c(C(=O)O)c(CCCOc3cccc4ccccc34)c3cccc-2c31 [Example 07]
- IC50 [1]: 29.6 µM and > 33 µM
- IC50 [2]: 5.15 µM and 5.5 µM
